{
  "source": "patent EP4755889A1",
  "about": "“COMPOUND FOR DETECTING AMYLOID-BETA OLIGOMER AND METHOD FOR DIAGNOSING DEGENERATIVE BRAIN DISEASE USING SAME” (Amyloid Solution Inc., priority 2024, dated 2025)",
  "key": {"[1]": {"target": "T1, Aβ1-42 oligomers (Homo sapiens, UniProt P05067)", "T1 construct": "Aβ1-42 peptide was aggregated at 37 °C for 8 hours", "T1 sequence (P05067 672-713)": "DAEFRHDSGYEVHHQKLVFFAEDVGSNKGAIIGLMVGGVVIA", "test": "Selectivity for blood proteins: Aβ1-42 oligomers", "format": "binding", "details": "IK15j (25 µM); compared with albumin and fibrinogen", "description": "Aβ1-42 peptide was aggregated at 37 °C for 8 hours, and 25 µM of Aβ1-42 oligomers, albumin (Sigma-Aldrich, USA), and fibrinogen (Sigma-Aldrich, USA) were seeded into a black microplate. Each sample was treated with IK15j (100 µM) for 8 hours at room temperature. The signal of each sample was detected using a microplate reader (λex = 285 nm / λem = 475 nm).\nExcluding water, the solid components of plasma consist of coagulation factors and plasma proteins. Albumin is the most abundant protein in plasma, and fibrinogen is a major coagulation factor in plasma. Considering the possibility that fibrinogen or albumin might interact with AD diagnostic tools and interfere with compound selectivity, IK15j (25 µM) was incubated with Aβ1-42, albumin, or fibrinogen as described in Reference Example 10, and the fluorescence signal of each sample was measured to evaluate the selectivity of the compound of the present disclosure against these proteins."}, "[2]": {"target": "T2, Aβ1-42-Aβn-(n+5) complexes (Homo sapiens, UniProt P05067)", "T2 construct": "full-length Aβ1-42 peptide was added to the MAP and incubated at 37 °C for 8 hours", "T2 sequence (P05067 672-713, one chain of several)": "as the sequence (P05067 672-713) above", "test": "Mapping Amyloid Plate (MAP): binding to complexes of Aβ1-42 with fragments", "description": "A Mapping Amyloid Plate (MAP) for investigating the target site of the compound of the present disclosure on Aβ1-42 fragments or Aβ1-42 oligomers was prepared with reference to Korean Patent Application No. 10-2023-0133625, which is incorporated herein by reference in its entirety.\nBriefly, to remove the bovine serum albumin coating from the plate, each well of the plate was washed three times with 200 µL of wash buffer (0.1 M sodium phosphate, 0.15 M sodium chloride, 0.05 % Tween-20, pH 7.2). Full-length and fragmented peptides of Aβ1-42 were individually dissolved in DMSO to prepare […] stock solutions, which were then diluted with binding buffer (0.1 M sodium phosphate, 0.15 M sodium chloride, 10 mM EDTA, pH 7.2) to prepare 50 µg/mL peptide solutions (5 % DMSO). 100 µL of the peptide solution was added to each well and allowed to react with the maleimide at room temperature overnight. After peptide immobilization, unbound peptides were removed by washing three times with 200 µL of wash buffer. To inactivate residual maleimide groups, 200 µL of a cysteine solution (10 µg/mL in binding buffer) was added to each well and incubated at room temperature for 1 hour. After cysteine capping, all wells of the plate were washed three times with 200 µL of wash buffer.\nTwo conditions were prepared to confirm whether the compound of the present disclosure targets the structure or the sequence of Aβ oligomers. First, the compound of the present disclosure (50 µM) was prepared in binding buffer (10 % DMSO), and 100 µL of the compound was added to the MAP and treated for 24 hours at room temperature. After incubation, all wells were washed three times with 200 µL of wash buffer. Second, full-length Aβ1-42 peptide was added to the MAP and incubated at 37 °C for 8 hours to form complexes between full-length Aβ1-42 and fragmented Aβ1-42. […] The fluorescence intensity of both plates was measured using a microplate reader (λex = 285 nm/λem = 475 nm). […]"}, "[3]": {"details": "MAP incubated with additional Aβ1-42 for 8 hours, then IK15j for 24 hours"}},
  "data": [
    {"smiles": "Cc1ccc2c(c1)c(-c1ccccc1)cn1c(C)cc(C#N)c21", "note": "[IK15j, 3,8-dimethyl-6-phenylpyrrolo[2,1-a]isoquinoline-1-carbonitrile]", "values": [
      {"measurement": "fluorescence intensity in the presence of Aβ1-42 oligomers compared to other proteins", "setting": "[1]", "value": "increased markedly"},
      {"measurement": "binding affinity for the N-terminus of Aβ, Aβ1-8 (DAEFRHDS)", "setting": "[2]; MAP complexes", "value": "moderate binding affinity"},
      {"measurement": "binding to complexes of Aβ1-42 with Aβ19-25 (FFAEDVG) and Aβ35-42 (MVGGVVIA)", "setting": "[2]; [3]", "value": "bound strongly"},
      {"measurement": "overall signal in the presence of Aβ1-42-Aβn-(n+5) complexes", "setting": "[2]; [3]", "value": "increased"}
    ]}
  ]
}
